Patent US20240374769A1, “LIGHT ACTIVATED CLEANING COMPOSITION” (The Procter & Gamble Company, priority 2023, published 2024)

How the values were obtained:
[1] = Riboflavin 5-phosphate sodium salt degradation under 450 nm LED with or without sodium ascorbate; format: physicochemical
Procedure: Stock solutions of Riboflavin5-phosphate sodium salt were created by adding 2.2 mg of granulated Riboflavin 5-phosphate sodium salt Riboflavin 5-phosphate sodium salt into a 10 mL volumetric flask with a 95% H2O: 5% ethanol to give a concentration of 0.46 mM. Adding 1 mL of the stock solution to another 10 mL was used to create a 46 μM solution. Adding 0.5 mL to a 25 mL volumetric flask gives a concentration of 9 μM.
Stock solutions of sodium ascorbate were created by adding 9.1 mg of granulated sodium ascorbate into a 10 mL volumetric flask with a 95% H2O: 5% ethanol to give a concentration of 4.6 mM. Adding 0.1 mL of the stock solution to another 10 mL was used to create a 46 μM solution. Adding 0.05 mL to a 25 mL volumetric flask gives a concentration of −9 μM, which could be multiplied to give the number of equivalents needed for each study.
For some riboflavin decomposition experiments a home-built 450 nm LED was used to irradiate samples. The quartz cuvette was placed 11.5 cm away from the light source and the measured intensity was 1750 mW/m^2.
A JASCO V-750 spectrophotometer (from JASCO Easton, Maryland, USA) was used for recording UV-Vis spectra. Quartz cuvettes were used for sample irradiations as they have an optical window that allows for spectra to be collected as low as 200 nm. IgorPro8 software was used for plotting and processing the data.
Fractional RF Absorbance is the absorbance signal at 446 nm measured at an irradiation time divided by the absorbance signal at 446 nm at t=0. The concentration of RF was held constant at 46 μM, denoted by “1” and the concentration of sodium ascorbate (SA) was varied in multiples of 46 μM, denoted by “1”, “5”, “10”, “50” (i.e. 46 μM, 230 μM, 460 μM, and 2.3 mM).
To test the depletion of Riboflavin 5-phosphate sodium salt (RF) in presence of sodium ascorbate, experiments were run in triplicate using a 450 nm LED with a measured power of 1750 mW/m2. […]

[2] = Thioxanthone depletion in solution under 365 nm irradiation (UV-Vis); format: physicochemical
Procedure: Solutions of photosensitizer (9-10 μM, 1 eq), […] (9-50 μM, 1-5 eq) and singlet oxygen quenching molecules (1-1000 equivalents) were prepared in a 10 mL volumetric flask either. Solvents for these studies were either 95:5 DI H2O:Ethanol or pure ethanol. A starting UV-Vis spectrum was obtained as a baseline. Solutions were irradiated in a quartz cuvette using appropriate LED's at a measured distance to ensure reproducible results. Spectra were collected at intervals of 1 min, 5 min, 15 minutes, 30 minutes, and every 15 minutes until the […] was depleted. In cases where nitrosoaniline absorption signals were quenched faster, the spectra were collected as smaller intervals typically been 1-5 minutes.
Stock solutions of thioxanthone were created by adding […] of granulated thioxanthone into a 10 mL volumetric flask with pure ethanol to give a concentration of 2.3 mM. Adding 0.1 mL of the stock solution to another 10 mL was used to create a 23 μM solution. Adding 0.1 mL to a 25 mL volumetric flask gives a concentration of −9 μM.
Stock solutions of imidazole were created by adding […] of granulated imidazole into a 10 mL volumetric flask with a 95% H2O: 5% ethanol or pure ethanol to give a concentration of […]. […]
Some thioxanthone decomposition experiments were performed by using a home-built 365 nm LED. […] The light intensity was measured to be roughly 2000 mW/m^2 from each LED. […]

[3] = in methanol solutions; cited from earlier work

For `Cc1cc2nc3c(=O)[nH]c(=O)nc-3n(C[C@H](O)[C@H](O)[C@H](O)COP(=O)([O-])O)c2cc1C.[Na+]` [Riboflavin 5-phosphate sodium salt], the “loss of absorbance signal at 446 nm” value ([1]; RF 46 μM by itself, 450 nm LED 1750 mW/m2, after 30 minutes of irradiation) was “roughly 50%”, the “loss of absorbance signal at 446 nm” value ([1]; RF 46 μM with 5× sodium ascorbate (230 μM), 450 nm LED, in about 10 minutes) was “roughly 50%” and the “loss of absorbance signal at 446 nm” value ([1]; RF 46 μM with 10× sodium ascorbate (460 μM), 450 nm LED, in about 10 minutes) was “roughly 50%”.

With `c1c[nH]cn1` [imidazole] the “effect of added imidazole on rate of thioxanthone degradation” value ([2]; thioxanthone 23 μM, imidazole 23 μM to 230 μM, 365 nm) was “increases the rate of thioxanthone degradation”.

In the case of `O=c1c2ccccc2sc2ccccc12` [thioxanthone, reference compound], the triplet quantum yield [3] is listed as 0.56 and the depletion of thioxanthone ([2]; thioxanthone 23 μM in ethanol, 365 nm irradiation) is listed as “complete after two hours of irradiation”.
